We go through 19 compounds from patent US20220378807A1, “DELIVERY OF A COOLING AGENT TO THE PHARYNGEAL-ESOPHAGEAL SURFACE” (priority 2019, published 2022).

In brackets after ≈: the same amount, converted by molar mass. Entries after “also recorded” stand apart in the source; their conditions may differ. Like-named read-outs stand apart in the source and are kept apart here.

Data set [1] addresses T1, cloned hTRPM8 channel (human TRPM8 gene, expressed in CHO cells) (Homo sapiens, UniProt Q7Z2W7).
T1 construct: host or cells: CHO cells
Kind of data set: TRPM8 agonist activity, Fluo-8 calcium FLIPR assay. It is filed as cell-based. To be noted: for Potency relative to menthol / EC50: p-menthane compounds, Table 8; for EC50: 95% limits printed in line below; for Relative Potency to L-menthol: from TRPM8 EC50, menthol = 1.0. As for the experimental part: In the first set of data, the potency and in vitro effects of test compounds were evaluated on cloned hTRPM8 channel (encoded by the human TRPM8 gene, expressed in CHO cells) using a Fluo-8 calcium kit and a Fluorescence Imaging Plate Reader (FLIPR^TETRATM) instrument. […] Test solutions were in HEPES-buffered saline, 384-well plates, and placed into the FLIPR instrument (Molecular Devices Corporation, Union City, Calif., USA). […] The test cells were Chinese Hamster Ovary (CHO) cells stably transfected with human TRPM8 cDNAs. The concentration-response data were analyzed via FLIPR Control software and fitted to a Hill equation for the EC50.

Data set [2] concerns throat (Adam's apple, jugular notch, upper chest). It is filed as in vivo, human. To be noted: for Discomfort: in vivo; for Duraton: duration of cooling after swallowing Shaped-Gel; for Onset: onset of cooling after swallowing Shaped-Gel, no unit in head (min); for Jugular Notch: cooling felt at jugular notch. Also noted: key to Jugular Notch / Sternum: cooling rated on a 0-3 scale; Onset: unit not given here. As for the experimental part:
Shaped-Gel having total weight of 0.4 to 1.2 g containing 0.4 to 1.5% by weight (5 mg/g to 15 mg/g) are prepared and tested. The following examples illustrate the invention, but are not intended to limit the scope of the present invention. A Shaped-Gel in accordance with the present invention was prepared with the following composition.
Shaped-Gels were prepared by these procedures. First step, the cooling agent was accurately weighed and place in a 60 mL plastic container. Then glycerol, water, and gelatin was added to the container and centrifuged for 2 min in a SpeedMixer (FlackTek, Inc.) at 3000 rpm. Then gelatin powder was added and the mixture centrifuged for 3 min. The container was warmed by placing it in a beaker containing hot water (80-85° C.) for 15 min. The container was then centrifuged for 5 min. The liquid mix was cooled and dispensed onto silicon molds with a plastic dropper, and placed in a refrigerator. After one hour, the gels were solidified, removed from the mold with a plastic tweezer, weighed and placed on wax paper and later stored in blister pockets. […] In preliminary studies, the shape of the Shaped-Gel was varied. Square, rectangular, spherical, hemispherical, toroidal, and pentagram Shaped-Gels were prepared at sizes ranging from 0.4 to 1.2 g. A flat shape wherein the shortest diameter was about 20% of the longest axis was preferred because it could be placed flat on the back of the tongue. A Shaped-Gel shaped as a rectangular prism of 2.75 mm×15 mm×15 mm=0.63 cm3 and weighing ˜0.6 g was acceptable to subjects. A toroid, much like a “LiveSaver” mint was also acceptable if the size was ˜0.8 g. Test Panel: The volunteers for testing the Shaped-Gel were six subjects, four males and two females, aged 50 to 76 years. Each Shaped-Gel was tested for at least four trials in at least three subjects. The concentration of the cooling agent in the Shaped-Gel varied from 0.5 to 2%. The duration of observation for each trial usually lasted for not more than 1.5 hours. Subjects were instructed to swallow the Shaped-Gel with a sip of […] water. Cooling sensations were rated on a scale of 0, 1, 2, 3, at intervals of 3 min, 5 min, and then at 10 min intervals. If a cooling value exceeded 2, the subject noted whether the cooling was felt at the level of the Adam's apple, jugular notch or upper chest. Ancillary effects were also recorded.

A further data set deals with Philtrum Skin. Briefly: Cooling on philtrum skin. It is filed as in vivo. To be noted: p-menthane compounds, Table 8.
The next data set deals with Eyelids Surfaces. Briefly: Cooling on eyelid surfaces. To be noted: p-menthane compounds, Table 8. It is filed as in vivo.
Data set [3] relates to Oral Cavity and Pharynx. Kind of data set: Study 2: sensory qualities of compounds applied to oral cavity and pharynx. It is filed as in vivo, human. To be noted: for sensations produced (cooling intensity, cold discomfort, adverse taste): ~0.8 mL per dose to base of tongue, four volunteers. The protocol:
Tests were on four volunteers, with 3 to 5 trials per substance. Compounds were prepared in cherry-flavored Shaped-Gel at 5 mg/mL and administered ˜0.8 mL per dose with a 2 mL plastic vial to the base of the tongue. The subjects asked to rate the sensations for cooling intensity, cold discomfort and adverse taste.

Data set [4] addresses T2, TRPV1 channels (human TRPV1 gene expressed in HEK293 cells) (Homo sapiens, UniProt Q8NER1).
T2 construct: expressed in transfected cells; host or cells: HEK293 cells
The note with it: data in Yang et al. BMC Ophthalmology 17:101 and Wei US 9,956,232; cited from earlier work.

For data set [5], the target named is T3, TRPA1 channels (human TRPA1 gene expressed in CHO cells) (Homo sapiens, UniProt O75762).
T3 construct: expressed in transfected cells; host or cells: CHO cells
T3 sequence (O75762 whole entry): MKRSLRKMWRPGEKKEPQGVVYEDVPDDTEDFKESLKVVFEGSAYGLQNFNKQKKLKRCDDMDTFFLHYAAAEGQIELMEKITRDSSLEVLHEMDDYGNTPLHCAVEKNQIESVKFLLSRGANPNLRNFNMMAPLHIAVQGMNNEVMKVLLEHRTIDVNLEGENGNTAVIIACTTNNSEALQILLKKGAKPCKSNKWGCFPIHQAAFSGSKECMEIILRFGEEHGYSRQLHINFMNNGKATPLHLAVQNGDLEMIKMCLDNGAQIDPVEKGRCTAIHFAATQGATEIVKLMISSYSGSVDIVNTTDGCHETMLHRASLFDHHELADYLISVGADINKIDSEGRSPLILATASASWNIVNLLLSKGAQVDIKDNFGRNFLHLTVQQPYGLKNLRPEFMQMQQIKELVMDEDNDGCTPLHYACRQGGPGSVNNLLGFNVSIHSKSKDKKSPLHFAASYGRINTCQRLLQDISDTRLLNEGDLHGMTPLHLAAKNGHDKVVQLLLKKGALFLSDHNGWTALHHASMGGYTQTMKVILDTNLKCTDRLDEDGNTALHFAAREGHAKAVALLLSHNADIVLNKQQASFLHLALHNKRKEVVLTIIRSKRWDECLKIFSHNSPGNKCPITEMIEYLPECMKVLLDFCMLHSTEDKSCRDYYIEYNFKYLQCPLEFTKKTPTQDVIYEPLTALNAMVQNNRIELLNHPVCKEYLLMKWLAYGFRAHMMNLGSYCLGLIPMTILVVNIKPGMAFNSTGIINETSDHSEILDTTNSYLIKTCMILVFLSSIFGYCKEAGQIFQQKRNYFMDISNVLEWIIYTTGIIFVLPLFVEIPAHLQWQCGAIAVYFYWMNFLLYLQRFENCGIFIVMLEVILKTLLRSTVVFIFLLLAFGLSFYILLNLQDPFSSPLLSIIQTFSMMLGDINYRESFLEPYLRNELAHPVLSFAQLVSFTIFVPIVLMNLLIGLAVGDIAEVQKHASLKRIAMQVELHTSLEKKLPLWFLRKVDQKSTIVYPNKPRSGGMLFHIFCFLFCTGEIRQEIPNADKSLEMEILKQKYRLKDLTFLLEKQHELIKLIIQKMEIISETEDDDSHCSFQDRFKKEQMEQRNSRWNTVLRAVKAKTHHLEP
To be noted: data in Yang et al. BMC Ophthalmology 17:101 and Wei US 9,956,232; cited from earlier work.

For data set [6], the system named is Oral Cavity and Pharynx. Kind of data set: Study 2: sensory qualities of compounds applied to oral cavity and pharynx. It is filed as in vivo, human.
A short description of data set [7]: Water solubility of 1-dialkylphosphinoylalkanes. It is filed as physicochemical. To be noted: R1R2R3P=O, by R1,R2 and R3.

T1 sequence (Q7Z2W7 whole entry): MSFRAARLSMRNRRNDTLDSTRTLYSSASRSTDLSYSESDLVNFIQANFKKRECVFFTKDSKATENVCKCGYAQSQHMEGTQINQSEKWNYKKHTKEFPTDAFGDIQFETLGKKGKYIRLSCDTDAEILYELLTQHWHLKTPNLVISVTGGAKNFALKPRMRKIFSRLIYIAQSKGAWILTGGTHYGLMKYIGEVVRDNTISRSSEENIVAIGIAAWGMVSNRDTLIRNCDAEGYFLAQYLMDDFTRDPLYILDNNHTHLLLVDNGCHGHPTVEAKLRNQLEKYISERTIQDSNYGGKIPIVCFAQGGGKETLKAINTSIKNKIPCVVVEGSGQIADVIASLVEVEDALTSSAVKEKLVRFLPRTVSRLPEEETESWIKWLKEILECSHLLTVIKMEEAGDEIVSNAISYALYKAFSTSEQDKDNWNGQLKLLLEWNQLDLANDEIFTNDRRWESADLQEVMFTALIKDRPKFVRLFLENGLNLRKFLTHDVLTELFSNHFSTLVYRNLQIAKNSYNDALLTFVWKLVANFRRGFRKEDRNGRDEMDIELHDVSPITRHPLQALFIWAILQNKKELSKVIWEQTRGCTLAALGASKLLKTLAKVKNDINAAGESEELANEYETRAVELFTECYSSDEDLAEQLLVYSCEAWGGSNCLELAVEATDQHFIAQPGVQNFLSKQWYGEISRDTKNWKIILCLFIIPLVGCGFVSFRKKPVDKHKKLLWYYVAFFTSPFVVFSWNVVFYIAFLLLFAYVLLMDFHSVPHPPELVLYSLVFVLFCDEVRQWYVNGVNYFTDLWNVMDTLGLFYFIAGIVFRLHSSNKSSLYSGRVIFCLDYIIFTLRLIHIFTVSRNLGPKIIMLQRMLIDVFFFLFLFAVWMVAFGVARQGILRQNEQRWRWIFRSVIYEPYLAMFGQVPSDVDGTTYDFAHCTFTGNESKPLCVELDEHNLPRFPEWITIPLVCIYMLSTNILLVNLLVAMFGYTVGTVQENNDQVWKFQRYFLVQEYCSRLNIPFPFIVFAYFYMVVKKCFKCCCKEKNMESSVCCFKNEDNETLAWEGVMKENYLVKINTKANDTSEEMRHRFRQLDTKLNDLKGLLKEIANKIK
T2 sequence (Q8NER1 whole entry): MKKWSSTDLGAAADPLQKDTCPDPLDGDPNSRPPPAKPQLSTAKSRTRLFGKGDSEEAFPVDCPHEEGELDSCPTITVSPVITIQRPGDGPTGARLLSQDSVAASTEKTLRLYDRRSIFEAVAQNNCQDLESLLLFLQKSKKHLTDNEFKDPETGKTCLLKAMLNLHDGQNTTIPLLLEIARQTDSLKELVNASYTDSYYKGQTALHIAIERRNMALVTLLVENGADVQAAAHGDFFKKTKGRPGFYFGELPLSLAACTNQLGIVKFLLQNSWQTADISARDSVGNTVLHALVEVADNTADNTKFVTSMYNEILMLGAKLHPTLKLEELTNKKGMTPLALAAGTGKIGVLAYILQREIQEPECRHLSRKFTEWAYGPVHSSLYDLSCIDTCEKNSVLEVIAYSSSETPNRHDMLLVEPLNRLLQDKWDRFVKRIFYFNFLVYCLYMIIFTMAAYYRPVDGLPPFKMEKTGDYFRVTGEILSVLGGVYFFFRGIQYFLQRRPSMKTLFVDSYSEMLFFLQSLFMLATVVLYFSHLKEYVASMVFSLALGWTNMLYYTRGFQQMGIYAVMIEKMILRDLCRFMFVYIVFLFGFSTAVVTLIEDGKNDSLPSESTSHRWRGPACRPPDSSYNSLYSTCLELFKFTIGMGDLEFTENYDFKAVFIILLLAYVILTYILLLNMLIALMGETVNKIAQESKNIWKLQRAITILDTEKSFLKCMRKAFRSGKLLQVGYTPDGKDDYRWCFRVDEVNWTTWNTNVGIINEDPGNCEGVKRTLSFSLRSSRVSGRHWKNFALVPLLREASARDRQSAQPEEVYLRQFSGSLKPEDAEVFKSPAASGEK

With `CCOC(=O)CNC(=O)[C@@H]1C[C@H](C)CC[C@H]1C(C)C` [WS-5], in [1], the “Potency relative to menthol” value turned out to be 10.6 and the EC50 was found to be 360 nM. In [2] (both, human), the Discomfort is recorded as 0. In [2], the Duraton was found to be 25 min and the Onset is on record as ~3. Further, in the data set with Philtrum Skin, the “Philtrum Skin” value turned out to be 24 min. Moreover, the “Eyelids Surfaces” value in the data set with Eyelids Surfaces amounted to 15 min.

As to `CCCCCCCCCP(=O)(C(C)C)C(C)C` [DIPA-1-9, 1-Di(isopropyl)-phosphinoyl-nonane], the “Relative Potency to L-menthol” value in data set [1] is on record as 4.0. Moreover, the “sensations produced (cooling intensity, cold discomfort, adverse taste)” value (“sensations produced” for short) in the data set on Oral Cavity and Pharynx [3] (5 mg/mL) is “coolness and cold which was well-tolerated”. In addition, in the data set on Oral Cavity and Pharynx [3] (in vivo), the “general sense of refreshment in the throat, persistence” value was ≥ 3 h and the strong metallic taste result is “does not have a strong metallic taste”. Further, in data set [2] (Shaped-Gel applied to base of tongue), the “onset of sensation of coolness in the throat” value was determined as 3 min. For the same compound, in [2] (both, human), the Discomfort was 0. Besides, in [2], the Duraton is ~60 min and the Onset is recorded as <3. Also, in data set [4], the “selectivity: TRPM8 versus TRPV1” value was “selective for TRPM8 and not TRPVI and TRPA1”. The “selectivity: TRPM8 versus TRPA1” value in data set [5] was “selective for TRPM8 and not TRPVI and TRPA1”. For the same compound, in the data set on Oral Cavity and Pharynx [6] (5, 8 to 15 mg/mL, 0.8 mL per dose), the “icy cold, pain or discomfort at increased concentration” value was “no pain or discomfort; also recorded: did not produce icy cold or pain”. Also, the “sensation in the oropharynx and esophagus” value with Oral Cavity and Pharynx [6] (optimized concentrations of 5 to 10 mg/mL) was “perfect cool in the oropharynx and esophagus but without cold discomfort”.

Regarding `CC1CCC(C(C)C)C(C(=O)OCC(O)CO)C1` (stereo not drawn) [WS-30], in data set [2], the Duraton was determined as 25 min, the Discomfort came out at 0 and the Onset is on record as ~3.

Take `CCCCCP(=O)(C(C)C)C(C)C` [DIPA-1-5, 1-Di(isopropyl)-phosphinoyl-pentane]: the “Relative Potency to L-menthol” value in [1] came to 0.7.

For `CCCCCCCCP(=O)(C(C)CC)C(C)CC` (stereo not drawn) [DAPA-2-8, 1-Di(sec-butyl)-phosphinoyl-octane], in data set [1], the “Relative Potency to L-menthol” value is listed as 2.9. Besides, the “unpleasant taste, description” value in the data set with Oral Cavity and Pharynx [3] (5 mg/mL) was ““metallic”, “organic solvent-like”, and “harsh””.

`CCCCCCC[P@@](=O)(C(C)C)C(C)CC` (stereo partly drawn) [3,4-7, 1-(Isopropyl-sec-butyl)-phosphinoyl-heptane]: the solubility in [7] stood at 20 mg/mL (≈ 81.2 mM).

On to `CC(C)OC(=O)CNC(=O)[C@@H]1C[C@H](C)CC[C@H]1C(C)C` [Ax-8], for which, in data set [1], the “Potency relative to menthol” value is 7.6 and the EC50 stood at 500 nM. For the same compound, in data set [2], the Duraton came out at 35 min, the Discomfort result is reported as “yes” and the Onset is 5. Further, the “Philtrum Skin” value in the data set on Philtrum Skin amounted to 27 min. Also, the “Eyelids Surfaces” value with Eyelids Surfaces came out at 300 min.

For the compound `CCCCCCP(=O)(C(C)CC)C(C)CC` (stereo not drawn) [DAPA-2-6, 1-Di(sec-butyl)-phosphinoyl-hexane], in data set [1], the “Relative Potency to L-menthol” value is listed as 4.7. In addition, in the data set on Oral Cavity and Pharynx [3] (5 mg/mL), the “unpleasant taste, description” value was ““metallic”, “organic solvent-like”, and “harsh””; the “sensations produced” value is “cold, icy cold, and adverse tastes”. In data set [2] (cooling felt at Adam's apple, Shaped-Gel), the “Adam's Apple” value is given as “+++ icy”. The “Jugular Notch” value in data set [2] (Shaped-Gel) was “++ icy”. In [2], the Duraton amounted to 30 min, the Discomfort result is given as “yes” and the Onset was <3.

`CCCCCCP(=O)(C(C)C)C(C)C` [DIPA-1-6, 1-Di(isopropyl)-phosphinoyl-hexane]: the “Relative Potency to L-menthol” value in [1] is given as 1.6.

Take `COc1ccc(NC(=O)[C@@H]2C[C@H](C)CC[C@H]2C(C)C)cc1` [WS-12]: the “Jugular Notch” value in [2] (Shaped-Gel) is recorded as 0. This compound returned a Sternum in data set [2] (cooling felt at sternum, Shaped-Gel) of 0. In data set [2], this compound registered a Duraton of 20 min, a Discomfort of 0 and an Onset of 5.

With `CC(C)OC(=O)C(C)NC(=O)[C@@H]1C[C@H](C)CC[C@H]1C(C)C` (stereo partly drawn) [D-Ala-OiPr], the “Potency relative to menthol” value in data set [1] was 14.6. Moreover, the “Philtrum Skin” value in the data set on Philtrum Skin is 34 min. The “Eyelids Surfaces” value with Eyelids Surfaces is 360 min.

With `CCCCCP(=O)(CC(C)C)CC(C)C` [DAPA-3-1, 1-di(iso-butyl) phosphinoyl-pentane], in [1], the “TRPM8 potency / bioactivity in words” value is recorded as “significant loss of bioactivity” and the “Relative Potency to L-menthol” value was 0.2.

Regarding `CCCCCP(=O)(C(C)CC)C(C)CC` (stereo not drawn) [DAPA-2-5, 1-di-sec-butyl-phosphorylpentane], the “Relative Potency to L-menthol” value in data set [1] worked out at 2.2.

Consider `CCCCCCCCP(=O)(C(C)C)C(C)C` [DIPA-1-8, 1-Di(isopropyl)-phosphinoyl-octane], for which the “Relative Potency to L-menthol” value in data set [1] stood at 5.4. Further, in the data set with Oral Cavity and Pharynx [3] (5 mg/mL), the “unpleasant taste, description” value was ““metallic”, “organic solvent-like”, and “harsh””; the “sensations produced” value was “cold, icy cold, and adverse tastes”. For the same compound, the strong metallic taste entry in the data set with Oral Cavity and Pharynx [3] (in vivo) is reported as “present”. Also, the “selectivity: TRPM8 versus TRPV1” value in data set [4] is on record as “Selectivity is also seen”. In addition, in data set [5], the “selectivity: TRPM8 versus TRPA1” value is recorded as “Selectivity is also seen”.

As for `CCC(C)P(=O)(CCC(C)C)C(C)CC` (stereo not drawn) [DAPA-3-2, 1-Di(sec-butyl)-phosphinoyl-3-methyl-butane], in data set [1], the “TRPM8 potency / bioactivity in words” value is given as “significant loss of bioactivity” and the “Relative Potency to L-menthol” value is on record as 0.9.

As for `CCCCP(=O)(C(C)CC)C(C)CC` (stereo not drawn) [DAPA-2-4, 1-Di(sec-butyl)-phosphinoyl-butane], in [1], the “Relative Potency to L-menthol” value amounted to 0.3.

For the compound `CCOC(=O)C(C)NC(=O)[C@@H]1C[C@H](C)CC[C@H]1C(C)C` (stereo partly drawn) [D-Ala-OEt], the “Potency relative to menthol” value in data set [1] is 14.0. The “Philtrum Skin” value in the data set on Philtrum Skin is 103 min. Moreover, in the data set with Eyelids Surfaces, the “Eyelids Surfaces” value is 180 min.

In the case of `CCCCCCCP(=O)(C(C)C)C(C)C` [DIPA-1-7, 1-Di(isopropyl)-phosphinoyl-heptane], the “Relative Potency to L-menthol” value in data set [1] came out at 5.4. Further, in the data set on Oral Cavity and Pharynx [3] (5 mg/mL), the cold discomfort result is “icy cold; also recorded: icy pain in the back of the throat”; the “unpleasant taste, description” value was ““metallic”, “organic solvent-like”, and “harsh””; the “sensations produced” value is “cold, icy cold, and adverse tastes”. In addition, in the data set with Oral Cavity and Pharynx [3] (in vivo), the strong metallic taste entry is recorded as “present”. In addition, in data set [4], the “selectivity: TRPM8 versus TRPV1” value is listed as “Selectivity is also seen”. Moreover, in data set [5], the “selectivity: TRPM8 versus TRPA1” value is reported as “Selectivity is also seen”.

Regarding `CCCCCCCP(=O)(C(C)CC)C(C)CC` (stereo not drawn) [DAPA-2-7, 1-Di(sec-butyl)-phosphinoyl-heptane], the “Relative Potency to L-menthol” value in [1] worked out at 3.4. Moreover, in the data set with Oral Cavity and Pharynx [3] (5 mg/mL), the “unpleasant taste, description” value is ““metallic”, “organic solvent-like”, and “harsh””; the “sensations produced” value was “cold, icy cold, and adverse tastes”.

By EC50 is commonly meant the concentration at which the effect is half-maximal. The term solubility denotes the concentration that dissolves in the medium under given conditions.
